# Source: US20250223610A1, “MEASUREMENT OF SOMATIC L1 RETROTRANSPOSITION ACTIVITY” (SZEGEDI BIOLÓGIAI KUTATÓKÖZPONT, priority 2022, published 2025)
# “Also recorded” adds a separate entry of the source.
# Assays:
# [1] = tested on: somatic L1 retrotransposition; assay: FACS measurement of EGFP-positive hepatocytes isolated from ORFeus carrying Fah-/- mice; details: 1 million hepatocytes per sample; Decitabine 1 mg/kg IP twice weekly
# Procedure: For evaluating alternative detection methods we investigated the outcome of Decitabine (5-aza-2′-deoxycytidine) treatments in the assay of the invention. 10 Fah^−/− animals were injected hydrodynamically and after NTBC withdrawal, 5 were started on Decitabine and 5 animals were kept without drug treatment as a control group. Under our current drug treatment regime administration of drugs starts at the same time as NTBC withdrawal.
# To test this approach, 2-2 animals from Decitabine-treated and control experimental groups were subjected to liver perfusion and hepatocyte isolation.
# Mice were housed under 12 h light-dark cycle at 22° C. with free access to water and regular rodent chow. […] Fah^−/− mice were treated with 8 mg/l Orfadin® (Nitisinone, NTBC) (Swedish Orphan Biovitrum) in drinking water. NTBC was withdrawn after hydrodynamic plasmid delivery. […] Dosing, scheduling, and the route of administration of all drugs and chemical compounds were determined according to the manufacturer's instructions and literature data. […] The body weight of the mice was monitored continuously. […]
# Procurement of liver for hepatocyte isolation was done under sodium pentobarbital (Nembutal) (Sigma Aldrich) anaesthesia. […] Cell numbers were determined using a Burker chamber. Cell viability was determined by trypan blue exclusion test. […]
# [2] = tested on: somatic L1 retrotransposition; assay: SYBR Green-based intronless EGFP qPCR on liver DNA of ORFeus reporter bearing Fah-/- mice; assay type: in vivo; details: 1 mg/kg IP twice weekly from NTBC withdrawal; liver samples after three months; preliminary results
# Excerpt: Multiple qPCR-based methods have already been published offering the possibility to measure the amount of intron-free EGFP copies produced during retrotransposition of the ORFeus reporter (Mita, Sun et al. 2020). Based on these published methods, we have also started to quantify our results.
# NTBC was withdrawn after hydrodynamic plasmid delivery.
# To measure the retrotransposition events of the synthetic L1 element we carried out genomic exon-exon junction qPCR analysis of the spliced, intronless EGFP using two different qPCR detection chemistry. SYBR Green based qPCR was done using PerfeCTa SYBR Green SuperMix (Quantabio). Cycling conditions were as follows: 95° C. for 7 min, 4 cycles of 10 s at 95° C., 15 s at 66° C. (−1° C./cycle, no acquisition), followed by 40 cycles of 5 s at 95° C., 10 s at 62° C. The following primers were used: […]
# Probe-based qPCR detection was done as previously described (Mita, Sun et al. 2020) using PerfeCTa qPCR ToughMix (Quantabio). All qPCR reactions were performed on a Rotor-Gene Q instrument (Qiagen) in triplicates using 87 ng of gDNA. Analysis was carried out with the Rotor-Gene Q software (Qiagen). Relative changes in expression levels were calculated using the ΔCT method (Livak and Schmittgen 2001) SYBR Green and probe-based qPCR results were normalized to measurements of the Olfr16 and Rpl21 internal control genes, respectively.
# [3] = tested on: somatic L1 retrotransposition; assay: Stereomicroscopic macrovisualization of EGFP positive hepatocyte colonies in liver of Fah-/- mice carrying the ORFeus reporter; assay type: in vivo; details: 5 mg/kg IP twice weekly from NTBC withdrawal; livers examined after 3 months
# Excerpt: In these proof of concept studies the present inventors have used an L1-ORF2-free ORFeus and amiR-free construct variant (shown in FIG. 3B). First, the ORFeus-expressing transposon and the hyperPB transposase helper plasmid were co-delivered hydrodynamically into the liver of Fah^−/− mice, then the curative drug nitisinone (NTBC) was withdrawn (FIG. 2A). In those hepatocytes where hydrodynamic transfection is successful, the hyperactive transposase helper enzyme is likely to catalyse the “cut and paste” transposition reaction presumably leading to an integration into the host chromosomes (Skipper, Andersen et al. 2013).
# FICZ was administered by intraperitoneal (IP) injection at a dose of 5 mg/kg body weight twice weekly. […]
# The results of EGFP macrovisualization were summarized in FIG. 5 for the control, FICZ-treated and MeIQx-treated experimental groups. The number of EGFP-positive hepatocyte cell colonies detectable by stereomicroscopy in the liver of each animal was counted and per-animal values were plotted on a box diagram. […]
# Pictures of whole mouse livers were taken with an Olympus SZX12 fluorescence stereozoom microscope equipped with a 100 W mercury lamp and filter sets for selective excitation and emission of GFP and mCherry.
# Tp53 gene = assay: Tp53 silencing by amiR element; parameters: species or system mouse
# Excerpt: For example, silencing of the Tp53 gene can attenuate the P53 L1 sensor (Ardeljan, Steranka et al. 2020) (FIG. 1B), without completely inactivating it. Such an effect is predicted to increase the tolerance of somatic cells to ORFeus reporter expression. We have developed three efficient Tp53 silencing amiR elements. Of these, amiR-mP53/1 capable to produce approximately 20% remaining Tp53 gene expression is currently being tested in our laboratory. Presumably, it will be able to increase the sensitivity of the somatic L1 activity measuring system. However, its application is not essential. Our results so far, at least in our in vivo system, are in conflict with the finding of the authors describing the role of the P53 sensor stating that wild-type retinal pigment epithelium-1 (RPE) cells undergo a TP53-dependent growth arrest in response to L1 (Ardeljan, Steranka et al. 2020). In contrast, ORFeus expressing mouse liver cells are able to regenerate the liver in the absence of p53 silencing (FIG. 3B).
molecule,measurement,setting,value
"Nc1ncn([C@H]2C[C@H](O)[C@@H](CO)O2)c(=O)n1 [Decitabine, 5-aza-2′-deoxycytidine]",number of EGFP-expressing cells by FACS compared to controls,[1],higher number; also recorded: confirmed the results obtained with qPCR
same,"induction of somatic L1 retrotransposition (amount of intron-free EGFP copies, normalized to Olfr16)",[2],weak inducer
"O=Cc1c2c(cc3c1=Nc1ccccc1-3)=Nc1ccccc1-2 [FICZ, 6-Formylindolo[3,2-b]carbazole]",number of EGFP fluorescent (ORFeus retrotransposition bearing) hepatocyte colonies in liver as compared to non-drug-treated controls,[3],more EGFP fluorescent colonies; also recorded: higher number
"Cc1cnc2ccc3c(nc(N)n3C)c2n1 [MeIQx, 2-Amino-3,8-Dimethylimidazo[4,5.f]Quinoxaline]",number of EGFP fluorescent (ORFeus retrotransposition bearing) hepatocyte colonies in liver as compared to non-drug-treated controls,[3],higher number
"amiR-mP53/1: Tp53 silencing artificial microRNA (amiR) element, SEQ ID NO: 19 (nucleic acid, misc_feature 27..121 Endogenous miR30a 5' flanking; misc_feature 155..176 Target with N1 A mismatch; stem_loop 177..195 loop; misc_feature 196..217 guide; misc_feature 238..347 Endogenous miR30a 3' flanking; amiR-mP53/1 element) DNA: GGGCCCGTGTACCGGTGTGTGAGCTCTGTTTGAATGAGGCTTCAGTACTTTACAGAATCGTTGCCTGCACATCTTGGAAACACTTGCTGGGATTACTTCTTCAGGTTAACCCAACAGAAGGCTCGAGAAGGTATATTGCTGTTGACAGTGAGCGATCACTGCATGGACGATCTGTTTAGTGAAGCCACAGATGTAAACAGATCGTCCATGCAGTGAGTGCCTACTGCCTCGGACTTCAAGGGGCTACTTTAGGAGCAATTATCTTGTTTACTAAAACTGAATACCTTGCTATCTCTTTGATACATTTTTACAAAGCTGAATTAAAATGGTATAAATTAAATCACTTTGTCGACGTGTTCTAGAGTGTGCCGGC",remaining Tp53 gene expression,Tp53 gene,approximately 20%
